Data taken from patent US6908734B2, “Sulfated CCR5 peptides for HIV-1 infection” (priority 2000, dated 2005).
Entries after “also recorded” stand apart in the source; their conditions may differ. Where no end group is shown, it is not given here. [ ]: non-standard residue; d: D form. The star is where a group is joined. Biotin = O=C1N[C@H]2[C@H](CS[C@H]2CCCCC(=O)*)N1; sY = N[C@@H](Cc1ccc(OS(=O)(=O)O)cc1)C(=O)O; pY = N[C@@H](Cc1ccc(OP(=O)(O)O)cc1)C(=O)O

Legend:
gp120JR-FL/CD4-IgG2 = experiment: CCR5 Nt peptide ELISA with gp120JR-FL/CD4-IgG2; assay type: binding, HIV-1; settings: for Avidity for gp120JR-FL/CD4-IgG2 relative to 2-18 (fold lower): ELISA; for Binding of gp120JR-FL/CD4-IgG2 to peptide (ELISA): peptide 1 μg/ml on streptavidin plate
Description: Streptavidin-coated ELISA plates (Pierce, Rockford, Ill.) were blocked with D-PBS/5% BSA for 2 hours at room temperature then washed three times with assay buffer (D-PBS/0.5% Tween 20/1% Fetal Bovine Serum/2% BSA). Plates were then contacted with sulfo- or phospho-peptides (1 μg/ml) for 1 hour at room temperature and washed three times with assay buffer. […] The plates were developed using the TMB substrate as described above.

[1] = tested on: gp120JR-FL/CD4-IgG2 complex binding to CCR5; experiment: Inhibition of gp120JR-FL/CD4-IgG2 complex binding to L1.2-CCR5+ cells (flow cytometry); assay type: cell-based, HIV-1; settings: gp120 100 nM, biotinylated CD4-IgG2 50 nM, different concentrations of peptide
Description: A gp120/CD4 complex formed from monomeric gp120 (100 nM) and biotinylated CD4-IgG2 (50 nM) was added to 1×10^6 L1.2-CCR5^+ cells in the presence of different concentrations of peptide (Olson et al. J. Virol. 73:4145, 1999). CD4-IgG2 is tetrameric and therefore binds four molecules of gp120, which increases binding of the complex to CCR5 (Allaway et al. AIDS Res. Hum. Retroviruses 11:533, 1995). The mean fluorescence intensity (m.f.i.) was measured by flow cytometry after addition of phycoerythrin (PE)-labeled streptavidin (Becton Dickinson, San Jose, Calif.). Inhibition of gp120/CCR5 binding was calculated: […].

[2] = molecular target: T1, gp120JR-FL/CD4-IgG2 binding to the sulfopeptide 2-18 (Homo sapiens, UniProt P51681); experiment: Competition ELISA: gp120JR-FL/CD4-IgG2 binding to sulfopeptide 2-18; parameters: species or system HIV-1; settings: complex 1 nM, up to supraphysiologic concentrations
T1 construct: a peptide spanning CCR5 residues 2-18 and containing sulfotyrosines in positions 10 and 14; host or cells: peptide synthetic
Description: In a competition ELISA, peptides were captured onto the plates as described above. Inhibitor or assay buffer was added for 1 h prior to addition of gp120JR-FL/CD4-IgG2 complex (1 nM) for an additional h at room temperature. The assay was then completed as described above. Direct binding of anti-CCR5 murine MAbs to the peptides was examined as described above except that MAb was substituted for gp120/CD4-IgG2 complex and a goat anti-mouse HRP-coupled antibody was used for detection.

gp120JR-FL/sCD4 = experiment: BIAcore: gp120JR-FL/sCD4 binding to immobilized biotinylated CCR5 Nt peptide; parameters: species or system HIV-1; settings: protein 100 nM; 400 RU biotinylated peptide on streptavidin chip
Description: (§1) Streptavidin-coated sensor chips (BIAcore AB, Sweden) were conditioned with five injections of regeneration solution (1M NaCl, 50 mM NaOH) and equilibrated with HBS-EP buffer (10 mM HEPES, 150 mM NaCl, […], 0.005% polysorbate 20) as recommended by the manufacturer. Biotinylated peptides were then immobilized on the chip by injection of peptide (100 nM) in HBS-EP buffer, followed by an injection of regeneration solution and equilibration with HBS-EP buffer. 400 resonance units (RU) of peptide were bound to the sensor chip surface. Solutions of the following proteins (100 nM) were passed over the sensor chip surface: gp120, sCD4, gp120/sCD4, PA8, PA10 and 2D7. […] Following injection of each solution the chip was regenerated and equilibrated as described above.
Biotinylated peptide was attached to the streptavidin-coated gold surface of a sensor chip and solutions containing different gp120/sCD4 complexes were flowed over the immobilized peptide. Adsorption of the complex due to complex/peptide binding was detected by an increase in surface plasmon resonance signal (RU), which reports changes in the effective refraction index very near the gold surface of the sensor chip (Schuck Ann. Rev. Biophys Biomol Struct 26:541, 1997). […]
Binding of gp120/CD4-IgG2 complex and MAbs to CCR5 Nt-based peptides was measured as previously described. […]

PA10 = experiment: BIAcore: PA10 on immobilized peptide; assay type: binding, mouse; settings: MAb 100 nM
Description: as §1

PA10 binding to CCR5 = experiment: Inhibition of anti-CCR5 MAb PA10 binding to L1.2-CCR5 cells; assay type: cell-based, mouse; settings: MAb 50 nM, peptide 100 μM
Description: L1.2-CCR5 cells (1×10^6) were incubated with anti-CCR5 MAb (50 nM)±peptide (100 μM). MAb binding was detected using a PE-labeled goat anti-mouse antibody (Caltag Laboratories, Burlingam, Calif.). The m.f.i value was measured by flow cytometry as described (Olson et al. J. Virol. 73:4145, 1999). MAb binding was calculated as above.

## 6-16: CCR5 residues 6-16, sulfotyrosines in positions 10 and 14, GAG spacer, biotinylated lysine (SSPI[sY]DIN[sY]YTGAG-{K(biotin)}; UniProt P51681 6-16, looked up, fragment)
gp120JR-FL/CD4-IgG2
  Avidity for gp120JR-FL/CD4-IgG2 relative to 2-18 (fold lower): at least ten-fold less avidly

## 10-18: CCR5 residues 10-18 (YDINYYTSE), sulfotyrosines in positions 10 and 14, GAG spacer, biotinylated lysine ([sY]DIN[sY]YTSEGAG-{K(biotin)})
gp120JR-FL/CD4-IgG2
  Avidity for gp120JR-FL/CD4-IgG2 relative to 2-18 (fold lower): ~3 fold
  Binding of gp120JR-FL/CD4-IgG2 to peptide (ELISA): significant binding; also recorded: avidly bound

## S-10: peptide spanning amino acids 2-18 of the CCR5 Nt, sulfo-tyrosine in position 10 (DYQVSSPI[sY]DINYYTSE; UniProt P51681 2-18, looked up, fragment)
[1]
  Inhibition of gp120JR-FL/CD4-IgG2 binding to CCR5+ cells: no inhibitory activity

## S-10/14: tyrosine-sulfated peptide spanning amino acids 2-18 of the CCR5 Nt, sulfo-tyrosines in positions 10 and 14 (DYQVSSPI[sY]DIN[sY]YTSE; UniProt P51681 2-18, looked up, fragment)
[1]
  Inhibition of gp120JR-FL/CD4-IgG2 binding to CCR5+ cells: inhibited complex binding to the cells in a dose-dependent manner

## 10-18(11A/18A): peptide 10-18 with residues Asp-11 and Glu-18 substituted for alanines ([sY]AIN[sY]YTSA; not fully specified (C-terminus); UniProt P51681 10-18, looked up, variant D11A E18A)
gp120JR-FL/CD4-IgG2
  Binding of gp120JR-FL/CD4-IgG2 to peptide (ELISA): only weakly bound

## MIP-1α: CC-chemokine known to bind CCR5
[2]
  Inhibition of gp120JR-FL/CD4-IgG2 binding to the sulfopeptide 2-18: not inhibited

## bP-10/14: biotinylated version of P-10/14 with C-terminal GAG spacer preceding a biotinylated lysine; apparently as 2-18(P) (DYQVSSPI[pY]DIN[pY]YTSEGAGK(Biotin))
gp120JR-FL/sCD4
  Association of gp120JR-FL/sCD4 complex with immobilized peptide (RU): complete lack of association

## TS-10/14: peptide spanning amino acids 10-14 of CCR5, two sulfo-tyrosine residues ([sY]DIN[sY])
[1]
  Inhibition of gp120JR-FL/CD4-IgG2 binding to CCR5+ cells: did not inhibit

## S-14: peptide spanning amino acids 2-18 of the CCR5 Nt, sulfo-tyrosine in position 14 (DYQVSSPIYDIN[sY]YTSE; not fully specified; UniProt P51681 2-18, looked up, fragment)
[1]
  Inhibition of gp120JR-FL/CD4-IgG2 binding to CCR5+ cells: no inhibitory activity

## bS-10/14: biotinylated version of S-10/14 with C-terminal GAG spacer preceding a biotinylated lysine; apparently as 2-18 (DYQVSSPI[sY]DIN[sY]YTSEGAGK(Biotin))
gp120JR-FL/sCD4
  Association of gp120JR-FL/sCD4 complex with immobilized peptide (RU): significant increase in RU
PA10
  Association of PA10 with immobilized peptide (BIAcore): associate

## 8-15: CCR5 residues 8-15, sulfotyrosines in positions 10 and 14, GAG spacer, biotinylated lysine (PI[sY]DIN[sY]YGAG-{K(biotin)}; UniProt P51681 8-15, looked up, fragment)
gp120JR-FL/CD4-IgG2
  Avidity for gp120JR-FL/CD4-IgG2 relative to 2-18 (fold lower): at least ten-fold less avidly

## RANTES: CC-chemokine known to bind CCR5
[2]
  Inhibition of gp120JR-FL/CD4-IgG2 binding to the sulfopeptide 2-18: not inhibited

## S-3/10/14: tyrosine-sulfated peptide spanning amino acids 2-18 of the CCR5 Nt, sulfo-tyrosines in positions 3, 10 and 14 (D[sY]QVSSPI[sY]DIN[sY]YTSE; UniProt P51681 2-18, looked up, fragment)
[1]
  Inhibition of gp120JR-FL/CD4-IgG2 binding to CCR5+ cells: inhibited complex binding to the cells in a dose-dependent manner
PA10 binding to CCR5
  Inhibition of PA10 binding to CCR5+ cells: inhibited

B1: MIP-1β: CC-chemokine known to bind CCR5 (protein, UniProt P13236 24-92, looked up)
C-C motif chemokine 4: APMGSDPPTACCFSYTARKLPRNFVVDYYETSSLCSQPAVVFQTKRSKQVCADPSESWVQEYVYDLELN
[2]
  Inhibition of gp120JR-FL/CD4-IgG2 binding to the sulfopeptide 2-18: not inhibited
